This assay has as its system methylene-bis-dAMP dimer. The experiment in a line: Reversal of cross-linking of the methylene-bis-dAMP dimer with catalysts, monitored by HPLC. The conditions noted are these: 5.0 mM catalyst, 1.0 mM dAMP dimer, 50 mM phosphate buffer pH 5.0, 60° C., aliquots at 10-90 minutes (FIG. 3). How it is done:
Reverse crosslinking of the methylene-bis-dAMP dimer (as shown in FIG. 2) were monitored by HPLC. […] For each reaction mixture, an aliquot (10 μl) was taken at 10 minutes, 20 minutes, 40 minutes, 60 minutes and 90 minutes.
Consider `Cc1ccc(N)c(B(O)O)c1` [Compound 3, (2-Amino-5-methylphenyl)boronic acid], for which the “reversal of cross-linking (shown as % of dAMP produced), rate compared with no catalyst” value is listed as “rates that are much faster than when no catalyst was added”.
The result for `[Br][Bi]([Br])[Br]` [Compound 7, Bismuth (III) bromide] reads “rates that are much faster than when no catalyst was added”.
For `Cl.Nc1ccccc1B(O)O` [Compound 2, 2-Aminophenylboronic acid] the value was “rates that are much faster than when no catalyst was added”.
The result for `CCOP(=O)(OCC)C(N)c1ccccc1.Cl` (stereo not shown) [Compound 6, (Aminophenylmethyl)phosphonic acid diethyl ester] reads “rates that are much faster than when no catalyst was added”.

(Values after US10995104B2, “Catalysts for reversing formaldehyde adducts and crosslinks” (Roche Molecular Systems, Inc., priority 2017, dated 2021).)
